Reference: US11203563B2, “Preparation of zinc linolenate, and application of zinc linolenate in preparing anti-helicobacter pylori drug” (NANJING MEDICAL UNIVERSITY, priority 2018, dated 2021)

Assays:
AGS cells = test system: AGS cells
Experimental: (§1) 2.4.1 Cytotoxicity detection
(1) Ges-1 and AGS cell suspensions are prepared, and the concentration is adjusted to 1×10^6.
(2) Inoculation into a 96-well plate: 100 μL is added per well, and 3 replicates is performed for the same sample.
(3) Culture is performed for 12 hours in an incubator at 37° C.
(4) 10 μL of zinc linolenate, 10 μL of linolenic acid, and 10 μL of zinc chloride are added respectively, and the working concentrations are 400 μg/mL, 300 μg/mL, 200 μg/mL, 100 μg/mL, and 0 μg/mL, respectively. A group added with drugs and without cells and a PBS control group are set.
(5) Culture is performed for 12 hours in an incubator at 37° C.
(6) 10 μL of CCK-8 is added, mixed by tapping and incubated for 4 hours.
(7) The absorbance at 450 nm is measured, and the survival rate is calculated according to the formula: cell proliferation rate[(As−Ab)]/[(Ac−Ab)]×100%, wherein As are wells containing the cell culture medium, drugs, and CCK-8; Ac are wells containing the cell culture medium, CCK-8, and no drug; and Ab are wells containing no cells and drugs, but only the culture medium and CCK-8. A survival curve is established based on the survival rate.

[1] = Blood biochemical indexes of liver and kidney functions, infected and treated mice; conditions: infected mice, therapeutic dose (omeprazole 138.2, amoxicillin 28.5, clarithromycin 14.3, zinc linolenate 24 mg/kg), intragastric, serum
Experimental: (2) Animal administration: the experimental group is intragastrically administered. The group with omeprazole is administered with omeprazole first, and then administered with other drugs 30 min later. After the mice are administered with the drugs, the mice fast for 4 hours. Calculated according to an average of 20 g/mouse of the weight of mice, the dosage is: omeprazole 138.2 mg/kg, amoxicillin 28.5 mg/kg, clarithromycin 14.3 mg/kg, and zinc linolenate 24 mg/kg, once a day for 5 consecutive times. The negative control group is administered with a PBS solution with the same dosage and number of times as above.
(3) Efficacy test: the mice in the infection group are weighed and the average weight is calculated on the 2 days after the drug is stopped. Blood is taken from the eyeballs and the mice are sacrificed by cervical dislocation. Stomach tissue is taken, and the isolation, culture and identification of Helicobacter pylori are the same as in 2.3.3 (3) and (4).
(4) Efficacy test: the mice in the infection group are weighed 3 days after the drug is stopped, and the average weight is calculated. Blood is taken from the eyeballs, and the mice are sacrificed by cervical dislocation. Stomach, kidney, liver and spleen tissues are taken, pathologically sectioned and HE stained, and serum is tested for liver and kidney functions.

Ges-1 cells = type: cell-based
From the text: as §1

In the case of CC/C=C\C/C=C\C/C=C\CCCCCCCC(=O)[O-].CC/C=C\C/C=C\C/C=C\CCCCCCCC(=O)[O-].[Zn+2] [zinc linolenate], the “toxicity compared with linolenic acid” value (AGS cells) was “smaller than that of linolenic acid”, the Alanine aminotransferase [1] was 50.00 U/L and the Aspartate aminotransferase [1] was 192.33 U/L. For the same molecule, the Blood urea nitrogen [1] was 14.97 mmol/L, the Creatinine [1] was 18.33 µmol/L and the “toxicity compared with linolenic acid” value (Ges-1 cells) was “smaller than that of linolenic acid”.
